Earlier results as cited in patent US20120020948A1, “DAG-TYPE AND INDIRECT PROTEIN KINASE C ACTIVATORS AND ANTICOAGULANT FOR THE TREATMENT OF STROKE” (priority 2010, published 2012).

Columns and labels:
[1] = system: PKC; details: for affinity for PKC: A-ring bryologs
[2] = system: NCI 60 cell line screen

SMILES | affinity for PKC [1] | also measured
CCCCCCCC(=O)O[C@H]1/C(=C/C(=O)OC)C[C@H]2C[C@H](CO)OC(=O)C[C@H](O)C[C@@H]3CCC[C@H](C[C@@H]4CCO[C@H](/C=C/C(C)(C)[C@]1(O)O2)O4)O3 [Analog 1] | – | PKC Affin [1]: 0.25 nM; affinity for PKC (in words) [1]: highest affinity for PKC
CC1=CC[C@H](C)C(C)(C)[C@@H]1/C=C/C(C)=C/CC[C@@]1(CO)[C@H](CCCO)/C(=C(/C)C=O)CC[C@]1(C)O [Iripallidal] | – | GI50 (concentration required to inhibit growth by 50%) [2]: micromolar to nanomolar range
CCCCCCCC(=O)OC1C(=CC(=O)OC)CC2CC(CO)OC(=O)CC(O)CCOC(C(C)(C)C)CC3CCOC(C=CC(C)(C)C1(O)O2)O3 (stereo not drawn) [bryolog 3] | 6.5 nM | –
CCCCCCCC(=O)OC1C(=CC(=O)OC)CC2CC(CO)OC(=O)CC(O)CCOC(c3ccccc3)CC3CCOC(C=CC(C)(C)C1(O)O2)O3 (stereo not drawn) [bryolog 4] | 2.3 nM | –
CCCCCCCC(=O)OC1C(=CC(=O)OC)CC2CC(CO)OC(=O)CC(O)CCOC(CCCc3ccc(Br)cc3)CC3CCOC(C=CC(C)(C)C1(O)O2)O3 (stereo not drawn) [bryolog 5] | 1.9 nM | –
